According to PubChem BioAssay AID1549 (Sanford-Burnham Center for Chemical Genomics, 2009):
Activity calls are given as the source filed them. No rule for the calls is given here.

Target: Influenza A virus M2 proton channel (A/TW/4845/1999 H1N1)
Assay: NMR binding screen, influenza A virus M2 proton channel, Kd (AID 1549)
Conditions: M2 protein

SMILES	Kd
COC(=O)NCc1cc2cc(Cl)ccc2[nH]1	> 4 mM (inactive)
O=C(O)Cn1nnn(-c2ccccc2)c1=S	> 4 mM (inactive)
Cn1ccc(C(=O)NC(=S)NN2CCOCC2)n1	> 4 mM (inactive)
O=C(NCCO)c1cc2ccccc2cc1O	> 4 mM (inactive)
Nc1ccc(N2CCCCC2)cc1	> 4 mM (inactive)
C/C=C/C=N/NC(=O)c1ccc(=O)n(C)c1	> 4 mM (inactive)
Cc1cc(C(=O)Nc2sc3c(c2C#N)CCC3)no1	> 4 mM (inactive)
COc1ccc([C@@H]2CC(=O)c3c(O)cc(O[C@@H]4O[C@H](CO[C@H]5O[C@@H](C)[C@H](O)[C@@H](O)[C@H]5O)[C@@H](O)[C@H](O)[C@H]4O)cc3O2)cc1O	> 4 mM (inactive)
O=C(CCc1ccc(O)cc1)c1c(O)cc(O)cc1O[C@@H]1O[C@H](CO)[C@@H](O)[C@H](O)[C@H]1O	> 4 mM (inactive)
O=C1Nc2ccccc2C1C1(O)C(=O)Nc2ccc(F)cc21 (centres undefined)	> 4 mM (inactive)
O=C(NCO)c1ccccc1Cl	> 4 mM (inactive)
Cc1csc(NC(=O)c2ccoc2C)n1	> 4 mM (inactive)
O=C(O)c1ccc2occc2c1	> 4 mM (inactive)
O=C(O)C1NCCc2ccccc21 (centres undefined)	> 4 mM (inactive)
OC12CC3CC(C1)C1(NCCS1)C(C3)C2 (centres undefined)	> 4 mM (inactive)
c1cc(C(N2CCOCC2)N2CCOCC2)ccn1	> 4 mM (inactive)
Cc1ccc(S(=O)(=O)CC(N)=O)cc1	> 4 mM (inactive)
O=C1CSC(c2ccc3c(c2)OCO3)N1 (centres undefined)	> 4 mM (inactive)
Cc1cc(C(=O)NCc2ccccc2Br)no1	> 4 mM (inactive)
[O-][n+]1cc(O)c(CN2CCOCC2)c2ccccc21	> 4 mM (inactive)
O=C(NCN1CCOCC1)c1cnccn1	> 4 mM (inactive)
Nc1ccc(C(=O)NCC2CCCO2)cc1 (centres undefined)	> 4 mM (inactive)
Cc1ccc(-c2nc(-c3cccnc3)no2)cc1	> 4 mM (inactive)
C[C@]12CC(=O)C3C(CC[C@@H]4C[C@H](O)CC[C@]34C)C1CC[C@]2(O)C(=O)CO (some centres undefined)	> 4 mM (inactive)

SMILES	Kd
O=C(Oc1ccc2c(c1)CCC2)N1CCOCC1	> 4 mM (inactive)
N/N=C1\CCCc2c1no[n+]2[O-]	> 4 mM (inactive)
CC1CCN(S(=O)(=O)N(C)C)CC1	> 4 mM (inactive)
OCc1ccncc1	> 4 mM (inactive)
CC(=O)c1c(C)nc(C)nc1NC(=O)C(C)C	> 4 mM (inactive)
COc1ccccc1NC(=O)c1ccc(Br)o1	> 4 mM (inactive)
Cc1nn(-c2ccccc2)c(Cl)c1C(N)=O	> 4 mM (inactive)
COc1c(OC)c2occc2c2oc(=O)ccc12	> 4 mM (inactive)
Cn1cnnc1Sc1ncnc(N)c1[N+](=O)[O-]	> 4 mM (inactive)
CCOC(=O)c1cnc2n(c1=O)CCS2	> 4 mM (inactive)
Nc1nnc(SCc2ccc(F)cc2)s1	> 4 mM (inactive)
O=c1[nH]cc(S(=O)(=O)N2CCc3ccccc32)c(=O)[nH]1	> 4 mM (inactive)
Cc1ccc(NC(=O)c2ccccc2)s1	> 4 mM (inactive)
O=C1CCCCCN1CO	> 4 mM (inactive)
O=c1cc(O)n(-c2ccc(F)cc2)c(=S)[nH]1	> 4 mM (inactive)
O=C1C2CCCCC2C(=O)N1Cc1cccnc1 (centres undefined)	> 4 mM (inactive)
CN1CCC=C(C(=O)O)C1	> 4 mM (inactive)
CNC(=S)Nc1cccc(C(=O)O)c1	> 4 mM (inactive)
Cc1ccccc1NC(=O)CSc1ccnc(=O)[nH]1	> 4 mM (inactive)
O=S(=O)(Cc1ccccc1)N1CCCCCC1	> 4 mM (inactive)
Cc1nc2ccccc2c(=O)n1/N=C/c1ccco1	> 4 mM (inactive)
COc1cc2c(cc1OC)C1(O)C(=O)c3ccc(O)c(C(=O)O)c3OC1CO2 (centres undefined)	> 4 mM (inactive)
NCC1COc2ccccc2O1 (centres undefined)	> 4 mM (inactive)
Cc1cc[n+](-c2nc([O-])sc2C=O)cc1	> 4 mM (inactive)

SMILES	Kd
CS(=O)(=O)Nc1nnc(Cc2ccccc2)s1	> 4 mM (inactive)
Nc1ccc(NS(=O)(=O)c2ccc(N)cc2)cc1	> 4 mM (inactive)
COC[C@]12CN(C=O)C3[C@@H]4[C@H](OC)C1[C@]3(C1CC3(O)C(OC)C(O)C4(OC(C)=O)C1C3OC(=O)c1ccccc1)[C@@H](OC)C[C@H]2O (some centres undefined)	> 4 mM (inactive)
COc1ccc(C(O)c2nccn2C)cc1 (centres undefined)	> 4 mM (inactive)
CN(c1ccc(C(=O)N2CCCCC2)cc1)S(C)(=O)=O	> 4 mM (inactive)
CC(=O)NC(NC(C)=O)c1ccccc1	> 4 mM (inactive)
Cc1ccc(-n2cnnn2)c2cccnc12	> 4 mM (inactive)
Oc1ccc(-n2ccnc2)cc1	> 4 mM (inactive)
Cc1occc1C(=O)NCc1ccncc1	> 4 mM (inactive)
OC1CCC(C(F)(F)F)CC1 (centres undefined)	> 4 mM (inactive)
Nc1ccc(S(=O)(=O)Nc2nccs2)cc1	> 4 mM (inactive)
CC(C)CCCC(C)[C@H]1CCC2C3CC=C4CC(=O)CC[C@]4(C)C3CC[C@@]21C (some centres undefined)	> 4 mM (inactive)
Nc1ncnc(NCc2cccnc2)c1[N+](=O)[O-]	> 4 mM (inactive)
Nc1cc(=O)[nH]c(=O)n1Cc1ccco1	> 4 mM (inactive)
Cc1nc2ccccc2c(=O)n1-c1cccc(O)c1	> 4 mM (inactive)
S=C(c1ccc2c(c1)OCO2)N1CCCC1	> 4 mM (inactive)
O=C(Nn1cnnc1)c1ccccc1-c1ccccc1	> 4 mM (inactive)
Nc1cc(F)cc(F)c1	> 4 mM (inactive)
Cc1noc(C)c1C(=O)N1CCc2ccccc2C1	> 4 mM (inactive)
OCc1ccc2occc2c1	> 4 mM (inactive)
CC(O)c1ccc(C(C)O)cc1 (centres undefined)	> 4 mM (inactive)
CC(=O)N1CCc2ccccc2C1CC(=O)O (centres undefined)	> 4 mM (inactive)
NCc1csc(-c2cccs2)n1	> 4 mM (inactive)
COc1ccc(Cc2nnc3c4cnn(C)c4ncn23)cc1	> 4 mM (inactive)

SMILES	Kd
Cc1ccc(C(=O)Nc2nnc(-c3ccncc3)s2)o1	> 4 mM (inactive)
COC(=O)c1c(C)cc(OC(=O)c2c(C)cc(O)c(C=O)c2O)c(C)c1O	> 4 mM (inactive)
CN(C)CCNC(CC(=O)Nc1ccccc1)C(=O)O (centres undefined)	> 4 mM (inactive)
NC(=O)C1CCN(C(=O)CN2CCc3ccccc32)CC1	> 4 mM (inactive)
COc1cc(OC)c2c(OC)c(-c3ccc4c(c3)OCO4)c(=O)oc2c1	> 4 mM (inactive)
CNc1nc(N)c(C(=O)C(C)(C)C)s1	> 4 mM (inactive)
CC1CC[C@@]2(OC1)O[C@H]1CC3C4CC[C@@H]5C[C@@H](O)CC[C@]5(C)C4CC[C@]3(C)[C@H]1[C@@H]2C (some centres undefined)	> 4 mM (inactive)
Cc1ccc(C(=O)n2cnnc2N)cc1C	> 4 mM (inactive)
CN1C2CCC1CC(OC(=O)C(CO)c1ccccc1)C2 (centres undefined)	> 4 mM (inactive)
Cc1cc(=O)n2ccc(CN3CCOCC3)c(O)c2n1	> 4 mM (inactive)
COC(=O)c1nc(-c2ccccc2)oc1N(C)C	> 4 mM (inactive)
COc1nc(-c2ccccc2)ccc1-c1noc(C)n1	> 4 mM (inactive)
O=C(c1nc2ccccc2s1)N1CCSCC1	> 4 mM (inactive)
CC(=O)c1cnc(Nc2nc(C)c3ccccc3n2)nc1C	> 4 mM (inactive)
CC(C)c1ccc2c(c1O)CC[C@H]1C3=C(CC[C@]21C)C(=O)OC3	> 4 mM (inactive)
Nc1ccc(CN2CCS(=O)(=O)CC2)cc1	> 4 mM (inactive)
Clc1ccc(SCCn2cncn2)cc1	> 4 mM (inactive)
Cc1cc(C)nc(/N=C(\N)N2CCc3ccccc32)n1	> 4 mM (inactive)
NC(=O)C1CCN(C(=S)Nc2ccccc2)CC1	> 4 mM (inactive)
O=C1NC(=S)S/C1=C/c1ccncc1	> 4 mM (inactive)
Cc1cc(C)c(C(N)=O)c(=S)[nH]1	> 4 mM (inactive)
CC(C)c1ccc(NC(=O)C(N)=O)cc1	> 4 mM (inactive)
O=S1(=O)CCC(NC(=S)N2CCCCC2)C1 (centres undefined)	> 4 mM (inactive)
Cc1cc(O)c(C=O)c(O)c1C(=O)O	> 4 mM (inactive)

SMILES	Kd
CN(C)c1ccc(/C=C2/NC(=S)NC2=O)cc1	> 4 mM (inactive)
CC(=O)Nc1ccc(NC(=O)N2CCOCC2)cc1	> 4 mM (inactive)
Cc1cc(C)n(S(=O)(=O)c2ccc(C)c(C)c2C)n1	> 4 mM (inactive)
Cc1ccc(-n2[nH]c(C)cc2=O)cc1	> 4 mM (inactive)
OCCCc1nc2ccc(C(F)(F)F)cc2[nH]1	> 4 mM (inactive)
CC1(C)Cc2nc(N3CCOCC3)c(C#N)cc2CO1	> 4 mM (inactive)
CO[C@H]1[C@@H](O)[C@@H](C)O[C@H](O[C@H]2CCC3(C)C4CCC5(C)[C@@H](C6=CC(=O)OC6)CC[C@]5(O)[C@@H]4CC[C@]3(O)C2)[C@@H]1O (some centres undefined)	> 4 mM (inactive)
O=C(NC1CSCC1O)c1ccccc1 (centres undefined)	> 4 mM (inactive)
COc1ccc2cc3[n+](cc2c1OC)CCc1cc2c(cc1-3)OCO2	> 4 mM (inactive)
O=C(Nc1cccc(Cl)c1)c1ccncc1	> 4 mM (inactive)
O=c1n(-c2ccccc2)c(=O)n2n1CCCC2	> 4 mM (inactive)
O=C(CS(=O)(=O)c1ccccc1)Nc1nccs1	> 4 mM (inactive)
O=C1c2ccccc2C(=O)N1OCc1ccccc1	> 4 mM (inactive)
Cc1cc(O)c(C)c(O)c1C(=O)O	> 4 mM (inactive)
COc1ccc2c(c1OC)C(=O)OC2[C@H]1c2c(cc3c(c2OC)OCO3)CCN1C (some centres undefined)	> 4 mM (inactive)
Cc1ccc(NC(=O)CN2C(=O)CSC2=O)cc1	> 4 mM (inactive)
OC[C@H]1O[C@@H](Oc2ccc(O)cc2)[C@H](O)[C@@H](O)[C@@H]1O	> 4 mM (inactive)
Nc1nc(O)c(C2=c3cc(Cl)ccc3=NC2=O)s1	> 4 mM (inactive)
Cc1scc(C(=O)Nc2ccon2)c1-c1ccccc1	> 4 mM (inactive)
OCCOc1ccc(C2=NCCO2)cc1	> 4 mM (inactive)
COc1cccc(NC(=O)c2ncn[nH]2)c1	> 4 mM (inactive)
O=C(Nc1ncccn1)c1cccc(F)c1	> 4 mM (inactive)
N=c1n(N)c2ccccc2n1CCO	> 4 mM (inactive)
